Counter-ions that a name gives are not always drawn.
Tests used:
trastuzumab = experiment: Viscosity reduction of highly concentrated trastuzumab solution (cone/plate rheometer); assay type: physicochemical; settings: trastuzumab 200 mg/ml, 150 mM agent, pH 6.0±0.2, 21° C. (Table III)
From the text: (§1) For this example, three solutions of monoclonal antibodies, i.e. a solution of bevacizumab (an IgG1 sold under the name Avastin® by Genentech/Hoffmann La Roche), a solution of infliximab (an IgG1/κ sold under the name Remicade® by Schering-Plough) and a solution of trastuzumab (an IgG1/κ sold under the name Herceptin® by Genentech), were concentrated by ultrafiltration on Amicon® Ultra-15 centrifuge filtration units with a cutoff threshold of 50 kDa. The protein concentration of each concentrated solution was measured by UV spectroscopy (absorbance at 280 nm) after dilution of the samples.
(§2) The commercial solution of bevacizumab (25 mg/ml) was concentrated to 268 mg/ml. […] Once reconstituted, the infliximab and trastuzumab formulations were concentrated to, respectively, 183 mg/ml and 243 mg/ml.
(§3) The effect of uridine compared with that of arginine and of NaCl on the viscosity of these three highly concentrated therapeutic protein solutions was then evaluated. For this, the viscosity was measured using a cone/plate rheometer (TA Instruments, AR 2000 Ex, geometry or diameter 20 mm, cone of 0.5131°, solvent trap filled with water) at a temperature of 21° C. and in flow sweep mode with shear rates of between 5000 and 50 s^−1 (3 points per decade-steady-state sensing). All the viscosity values are determined at the level of the Newtonian plateau.
(§4) For this example, the “Protein+Urid”, “Protein+Arg” and “Protein+NaCl” formulations were prepared by mixing one of the previously prepared undine, arginine or NaCl solutions, with Milli-Q® water and with one of the previously prepared concentrated protein solutions so as to achieve a final uridine, arginine or NaCl concentration of 150 mmol/l (mM) and a final protein concentration of 220 mg/ml for bevacizumab, 150 mg/ml for infliximab and 200 mg/ml for trastuzumab. The samples thus prepared were stored at ambient temperature and were analyzed using a rheometer within 24 hours of their preparation.
(§5) The “control” solutions are prepared by dilution in Milli-Q® water, so as to achieve a final protein concentration of 220 mg/ml for bevacizumab, 150 mg/ml for infliximab and 200 mg/ml for trastuzumab.
(§6) The pH of these formulations (“Protein+Urid”, “Protein+Arg” and “Protein+NaCl” and “controls”) is the same as that of the commercial formulation of the corresponding therapeutic protein (table II).
(§7) The results of the measurements relating to this second example are given in table III hereinafter in the form of percentages of viscosity reduction relative to the control solution of therapeutic protein alone, at the same protein concentration as the “Protein+Urid”, “Protein+Arg” or “Protein+NaCl” formulations.

infliximab = experiment: Viscosity reduction of highly concentrated infliximab solution (cone/plate rheometer); assay type: physicochemical; settings: for % viscosity reduction relative to the control infliximab solution: pH 7.2±0.2
From the text: as §1, §2, §3
The samples thus prepared were stored at ambient temperature and were analyzed using a rheometer within 24 hours of their preparation. […]
as §6, §7
(§8) In this study, the highly concentrated bevacizumab and infliximab solutions used are the same as those which were prepared and used previously. The “Protein+Cyt”, “Protein+Deoxycyt”, “Protein+Urid”, “Protein+Arg”, “Protein+NaCl” and “Protein+ATP” formulations were prepared in the presence of 150 mM of cytidine, of 2′-deoxycytidine, of uridine, of arginine, of NaCl or of sodium salt of adenosine 5′-triphosphate.
(§9) The viscosity of the “Protein+Cyt”, “Protein+Deoxycyt” and “Protein+Urid” formulations was then measured as described in example 2 and compared with that obtained for the “Protein+Arg”, “Protein+NaCl” and “Protein+ATP” formulations. The pH of these formulations is the same as that of the corresponding therapeutic protein formulation, i.e. 6.2±0.2 for bevacizumab and 7.2±0.2 for infliximab.
(§10) The results of the measurements relating to this example are given in tables IV and V hereinafter in the form of percentages of viscosity reduction relative to the control solution of therapeutic protein alone, at the same protein concentration as the “Protein+Cyt”, “Protein+Deoxycyt”, “Protein+Urid”, “Protein+Arg”, “Protein+NaCl” and “Protein+ATP” formulations.
The highly concentrated infliximab solution used is the same as that which was prepared previously. The “Protein+Cyt” and “Protein+Arg” formulations were prepared in the presence of 150 mM of cytidine or of arginine and with infliximab concentrations decreasing from 150 mg/ml to 80 mg/ml.
The pH of these formulations is the same as that of the commercial infliximab formulation, i.e. 7.2±0.2. The viscosity of the formulations thus prepared was measured as described in example 2.
The results of the measurements relating to this example are given in table VI hereinafter in the form of percentages of viscosity reduction relative to the control Infliximab solution.
The highly concentrated infliximab solution used is the same as that which was prepared and used previously. […]

bevacizumab = experiment: Viscosity reduction of highly concentrated bevacizumab solution (cone/plate rheometer); assay type: physicochemical; settings: bevacizumab 220 mg/ml, 150 mM agent
From the text: as §1, §2, §3, §4, §5, §6, §7, §8, §9, §10

[1] = cited from earlier work
[2] = Infliximab 105 mg/ml, 50 mM agent, pH 7.2
[3] = Infliximab 105 mg/ml, 150 mM agent, pH 7.2 (Table VII)
[4] = Infliximab 105 mg/ml, 300 mM agent, pH 7.2
[5] = infliximab 80 mg/ml, 150 mM agent
[6] = infliximab 105 mg/ml, 150 mM agent
[7] = infliximab 125 mg/ml, 150 mM agent
[8] = infliximab 140 mg/ml, 150 mM agent
[9] = infliximab 150 mg/ml, 150 mM agent
[10] = infliximab 150 mg/ml, 150 mM agent, pH 7.2±0.2 (Table V)
[11] = infliximab 150 mg/ml, 150 mM agent, pH 7.2±0.2, 21° C. (Table III)

| Compound | % viscosity reduction relative to the “protein alone” control (trastuzumab) [%] | % viscosity reduction relative to the “protein alone” control (infliximab; [2]) [%] | % viscosity reduction relative to the “protein alone” control (infliximab; [3]) [%] | % viscosity reduction relative to the “protein alone” control (infliximab; [4]) [%] | % viscosity reduction relative to the “protein alone” control (infliximab; [10]) [%] | % viscosity reduction relative to the “protein alone” control (infliximab; [11]) [%] | % viscosity reduction relative to the “protein alone” control (bevacizumab; pH 6.2±0.2 (Table IV)) [%] | % viscosity reduction relative to the “protein alone” control (bevacizumab; pH 6.2±0.2, 21° C. (Table III)) [%] | other results |
| --- | --- | --- | --- | --- | --- | --- | --- | --- | --- |
| Cl.N=C(N)NCCC[C@H](N)C(=O)O [Arg, L-arginine hydrochloride salt] | 48 | 32 | 46 | 58 | 55 | 55 | 46 | 46 | % viscosity reduction relative to the control infliximab solution (infliximab; [5]): 36%; % viscosity reduction relative to the control infliximab solution (infliximab; [6]): 47%; % viscosity reduction relative to the control infliximab solution (infliximab; [7]): 46%; % viscosity reduction relative to the control infliximab solution (infliximab; [8]): 59%; % viscosity reduction relative to the control infliximab solution (infliximab; [9]): 55% |
| [Cl-].[Na+] [NaCl, Sodium chloride] | 34 | 20 | −6 | −90 | 6 | 6 | 24 | 24 | – |
| Nc1ccn([C@H]2C[C@H](O)[C@@H](CO)O2)c(=O)n1 [Deoxycyt, 2′-Deoxycytidine] | – | – | – | – | 75 | – | 51 | – | – |
| Nc1ncnc2c1ncn2[C@@H]1O[C@H](COP(=O)(O)OP(=O)(O)OP(=O)(O)O)C(O)C1O (stereo partly drawn) [ATP, Sodium salt of adenosine 5′-triphosphate] | – | – | – | – | 0 | – | −14 | – | effect on the viscosity of infliximab (in words) (infliximab; [9]): does not make it possible to reduce the viscosity; effect on the viscosity of bevacizumab (in words) (bevacizumab): does not make it possible to reduce the viscosity; increase of the viscosity of bevacizumab (bevacizumab): 14%; effect on the viscosity of bevacizumab (in words) (bevacizumab; listed as sodium salt of adenosine 5′-triphosphate): does not make it possible, a fortiori, to reduce the viscosity |
| Nc1ccn([C@@H]2O[C@H](CO)[C@@H](O)[C@H]2O)c(=O)n1 [Cyt, Cytidine] | – | 39 | 68 | 72 | 76 | – | 43 | – | % viscosity reduction relative to the control infliximab solution (infliximab; [5]): 58%; % viscosity reduction relative to the control infliximab solution (infliximab; [6]): 68%; % viscosity reduction relative to the control infliximab solution (infliximab; [7]): 69%; % viscosity reduction relative to the control infliximab solution (infliximab; [8]): 77%; % viscosity reduction relative to the control infliximab solution (infliximab; [9]): 76% |
| Nc1nc2c(ncn2[C@@H]2O[C@H](CO)[C@@H](O)[C@H]2O)c(=O)[nH]1 [guanosine] | – | – | – | – | – | – | – | – | solubility (in words) [1]: very poor solubility |
| O=c1ccn([C@@H]2O[C@H](CO)[C@@H](O)[C@H]2O)c(=O)[nH]1 [Urid, Uridine] | 35 | – | – | – | 70 | 70 | 64 | 64 | % viscosity reduction relative to the “protein alone” control (trastuzumab; listed as uridine): 35%; % viscosity reduction relative to the “protein alone” control (infliximab; infliximab 150 mg/ml, 150 mM agent, pH 7.2±0.2, 21° C. (Table III), listed as uridine): 70%; % viscosity reduction relative to the “protein alone” control (bevacizumab; pH 6.2±0.2, 21° C. (Table III), listed as uridine): 64% |
